The target of series [1] is Cytochrome P450 2D6 (Homo sapiens, UniProt P10635).
The nature of series [2]: in vitro. The note with it: rat, liver microsomes. On the technique in general: Liver microsomes are a subcellular fraction often used to study metabolism.
The nature of series [3]: physchem. The note with it: 1% DMSO, pH 6.8.
The target in series [4] is T1, Cytochrome P450 1A2 (Homo sapiens, UniProt P05177).
T1 sequence (P05177 whole entry): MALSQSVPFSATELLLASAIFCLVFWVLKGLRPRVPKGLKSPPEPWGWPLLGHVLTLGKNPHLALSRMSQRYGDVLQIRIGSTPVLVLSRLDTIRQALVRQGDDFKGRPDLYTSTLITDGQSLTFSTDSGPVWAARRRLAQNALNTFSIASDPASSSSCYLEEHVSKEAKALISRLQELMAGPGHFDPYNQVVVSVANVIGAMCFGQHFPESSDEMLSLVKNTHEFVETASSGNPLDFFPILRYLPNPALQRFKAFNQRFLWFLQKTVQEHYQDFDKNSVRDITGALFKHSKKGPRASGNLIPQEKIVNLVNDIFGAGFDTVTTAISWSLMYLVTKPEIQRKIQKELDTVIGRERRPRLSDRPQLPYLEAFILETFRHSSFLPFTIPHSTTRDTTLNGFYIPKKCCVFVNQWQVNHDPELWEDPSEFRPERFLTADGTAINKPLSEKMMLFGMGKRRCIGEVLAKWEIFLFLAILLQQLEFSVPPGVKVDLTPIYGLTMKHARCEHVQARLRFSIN

Series [5] addresses Cytochrome P450 3A4 (Homo sapiens, UniProt P08684).
The target in series [6] is T2, Neuropeptide Y receptor type 5 (Mus musculus, UniProt O70342).
T2 sequence (O70342 whole entry): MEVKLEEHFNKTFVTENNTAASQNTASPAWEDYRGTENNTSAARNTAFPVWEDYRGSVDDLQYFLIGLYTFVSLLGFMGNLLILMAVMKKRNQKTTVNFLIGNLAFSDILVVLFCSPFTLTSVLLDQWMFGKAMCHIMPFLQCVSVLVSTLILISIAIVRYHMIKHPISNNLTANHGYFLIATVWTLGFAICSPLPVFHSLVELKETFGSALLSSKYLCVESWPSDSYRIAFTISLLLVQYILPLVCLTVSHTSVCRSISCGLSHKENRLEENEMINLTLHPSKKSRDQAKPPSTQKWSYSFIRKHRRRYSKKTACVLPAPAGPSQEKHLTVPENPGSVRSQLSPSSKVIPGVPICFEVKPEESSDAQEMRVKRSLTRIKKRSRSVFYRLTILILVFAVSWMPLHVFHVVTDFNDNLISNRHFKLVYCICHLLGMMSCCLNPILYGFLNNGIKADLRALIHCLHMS
Description: Displacement of [125I]PYY from mouse NPY Y5 receptor.

The nature of series [7]: in vitro. As to conditions: human, liver microsomes.
In series [8] the target is Cytochrome P450 2C19 (Homo sapiens, UniProt P33261).
In series [9] the target is Cytochrome P450 2C9 (Homo sapiens, UniProt P11712).

Structures are written as SMILES. In brackets after ≈: the same amount, converted by molar mass.

Chain of Cytochrome P450 3A4 (P08684 whole entry): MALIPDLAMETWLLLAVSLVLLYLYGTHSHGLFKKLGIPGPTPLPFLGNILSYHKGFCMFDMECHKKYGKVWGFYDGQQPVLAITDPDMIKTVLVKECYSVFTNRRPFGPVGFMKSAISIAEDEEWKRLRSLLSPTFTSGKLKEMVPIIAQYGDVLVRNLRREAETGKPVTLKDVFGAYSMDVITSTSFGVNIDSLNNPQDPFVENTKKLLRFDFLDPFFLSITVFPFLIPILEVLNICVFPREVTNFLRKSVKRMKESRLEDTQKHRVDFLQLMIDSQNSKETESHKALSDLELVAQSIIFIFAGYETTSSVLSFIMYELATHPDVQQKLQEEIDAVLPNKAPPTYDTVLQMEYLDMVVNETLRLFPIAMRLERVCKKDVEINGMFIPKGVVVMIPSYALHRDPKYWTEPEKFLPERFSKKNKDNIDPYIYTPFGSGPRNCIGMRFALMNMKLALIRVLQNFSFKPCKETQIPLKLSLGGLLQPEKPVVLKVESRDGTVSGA
Chain of Cytochrome P450 2C9 (P11712 whole entry): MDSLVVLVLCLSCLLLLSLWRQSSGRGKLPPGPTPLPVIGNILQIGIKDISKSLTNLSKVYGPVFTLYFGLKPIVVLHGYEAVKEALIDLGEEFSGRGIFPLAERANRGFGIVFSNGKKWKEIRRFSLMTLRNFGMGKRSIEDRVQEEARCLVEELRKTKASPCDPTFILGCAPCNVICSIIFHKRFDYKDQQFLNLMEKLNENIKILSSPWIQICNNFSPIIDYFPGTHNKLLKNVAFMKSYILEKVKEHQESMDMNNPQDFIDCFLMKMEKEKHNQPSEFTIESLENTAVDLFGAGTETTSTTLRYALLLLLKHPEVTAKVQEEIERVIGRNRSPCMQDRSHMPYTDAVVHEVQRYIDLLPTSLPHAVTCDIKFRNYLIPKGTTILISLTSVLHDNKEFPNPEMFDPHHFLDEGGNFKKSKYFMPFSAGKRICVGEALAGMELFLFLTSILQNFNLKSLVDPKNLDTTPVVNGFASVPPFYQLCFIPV
Chain of Cytochrome P450 2D6 (P10635 whole entry): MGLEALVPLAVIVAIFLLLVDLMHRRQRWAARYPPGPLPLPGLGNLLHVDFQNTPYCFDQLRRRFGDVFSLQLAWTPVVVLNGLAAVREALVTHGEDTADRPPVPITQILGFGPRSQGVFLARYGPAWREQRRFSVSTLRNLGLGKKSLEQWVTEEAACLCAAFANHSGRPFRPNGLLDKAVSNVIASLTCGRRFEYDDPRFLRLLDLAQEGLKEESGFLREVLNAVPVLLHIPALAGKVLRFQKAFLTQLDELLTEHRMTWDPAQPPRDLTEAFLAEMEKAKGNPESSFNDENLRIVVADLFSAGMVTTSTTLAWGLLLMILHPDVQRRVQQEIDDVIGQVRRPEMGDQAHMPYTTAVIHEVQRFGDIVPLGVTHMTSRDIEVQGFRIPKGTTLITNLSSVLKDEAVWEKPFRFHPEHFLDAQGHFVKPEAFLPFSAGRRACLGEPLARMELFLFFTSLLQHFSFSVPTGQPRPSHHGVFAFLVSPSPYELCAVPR
Chain of Cytochrome P450 2C19 (P33261 whole entry): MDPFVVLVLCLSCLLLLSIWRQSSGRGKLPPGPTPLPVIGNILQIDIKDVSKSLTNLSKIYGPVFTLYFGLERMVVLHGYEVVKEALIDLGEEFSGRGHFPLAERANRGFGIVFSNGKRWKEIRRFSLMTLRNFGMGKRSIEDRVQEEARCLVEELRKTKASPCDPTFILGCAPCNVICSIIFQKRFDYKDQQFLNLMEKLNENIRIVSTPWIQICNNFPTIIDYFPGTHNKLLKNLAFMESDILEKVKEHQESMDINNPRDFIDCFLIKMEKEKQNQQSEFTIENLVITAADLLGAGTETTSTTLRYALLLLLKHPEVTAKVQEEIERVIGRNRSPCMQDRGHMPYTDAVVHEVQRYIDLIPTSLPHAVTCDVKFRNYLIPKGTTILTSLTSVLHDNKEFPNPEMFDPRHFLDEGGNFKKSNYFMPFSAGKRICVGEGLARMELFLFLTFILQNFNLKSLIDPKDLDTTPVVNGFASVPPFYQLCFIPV

With `CC(C)(C)S(=O)(=O)c1ccc2nc(-c3ccc(=O)n(-c4ccccc4)c3)[nH]c2c1`, the IC50 (in general, the concentration at which inhibition is half-maximal) was > 20 µM in series [1], > 20 µM in [4], > 20 µM in series [5] and 0.0075 µM in series [6]. Also, the values for the amount remaining at 0.5 h in series [2] and in series [7] were > 99.9% and 94.2%, respectively. In addition, the solubility (kinetic) (usually solubility judged after dilution from a stock solution rather than from solid) in series [3] was found to be 9.4 µM (≈ 3.83 µg/mL).
Regarding `CCS(=O)(=O)c1ccc2nc(-c3ccc(C)c(-c4ccccc4)c3)[nH]c2c1`, the IC50 in [1] was > 20 µM; in series [4], 3.2 µM; in series [5], 5.7 µM.
As for `CCCS(=O)(=O)c1ccc2[nH]c(-c3ccc(=O)n(-c4ccccc4)c3)nc2c1`, the IC50 in series [1], in series [8], in series [4], in series [9] and in [5] was > 20 µM throughout. Moreover, the amount remaining (in general, the share of the starting amount still present when the sample was taken) at 0.5 h stood at 78.6% in series [2] and 88.5% in [7].
For the compound `CCS(=O)(=O)c1ccc2nc(-c3cc(-c4ccccc4)ccn3)[nH]c2c1`, the IC50 in series [6] worked out at 0.00055 µM.
For the compound `CCS(=O)(=O)c1ccc2nc(-c3cccc(-c4ccccc4)c3F)[nH]c2c1`, the IC50 is > 20 µM in [1], 1.1 µM in series [4], 6.6 µM in series [5] and 0.0027 µM in series [6]. For the same compound, in series [3], the kinetic solubility was 0.6 µM (≈ 0.228 µg/mL).
With `CCS(=O)(=O)c1ccc2[nH]c(-c3cncc(-c4ccccc4)c3)nc2c1`, the figures for the IC50 in series [1], in series [4] and in series [5] were > 20 µM, 6.3 µM and 7.8 µM, respectively.
For the compound `CCS(=O)(=O)c1ccc2nc(-c3cc(-c4ccccc4)ccc3Cl)[nH]c2c1`, the IC50 in [1] was determined as 15 µM; in [4] it was 0.4 µM; in series [5] it was 5 µM; in series [6] it was 0.0311 µM. The same compound yielded a kinetic solubility in [3] of 0.4 µM (≈ 0.159 µg/mL).
As for `CCS(=O)(=O)c1ccc2[nH]c(-c3ccc(Cl)c(-c4ccccc4)c3)nc2c1`, the IC50 in series [1] was found to be 18 µM; in series [4], 8.5 µM; in series [5], 2.6 µM; in [6] it was 0.00016 µM.
In the case of `CCCS(=O)(=O)c1ccc2nc(-c3ccc(-c4ccccc4)cc3)[nH]c2c1`, the results for the IC50 in series [1], in [4] and in series [5] were 15 µM, > 20 µM and 2.9 µM, respectively.
With `CCS(=O)(=O)c1ccc2nc(-c3cc(-c4ccccc4)ccc3C)[nH]c2c1`, the IC50 amounted to 14 µM in series [1], 0.4 µM in [4] and 0.383 µM in series [6]. The solubility (kinetic) in [3] was 0.5 µM (≈ 0.188 µg/mL).
The compound `O=c1ccc(-c2nc3ccc(S(=O)(=O)C(F)(F)F)cc3[nH]2)cn1-c1ccccc1` returned an IC50 in series [6] of 0.0025 µM.
The compound `CCS(=O)(=O)c1ccc2[nH]c(-c3cccc(-c4ccccc4)c3)nc2c1` showed an IC50 in [6] of 0.00046 µM.
Consider `CCS(=O)(=O)c1ccc2[nH]c(-c3cccc(-c4ccccc4)n3)nc2c1`, for which the IC50 in series [6] came out at 0.0389 µM.
Turning to `CCS(=O)(=O)c1ccc2[nH]c(-c3ccnc(-c4ccccc4)c3)nc2c1`, the IC50 in [1] was > 20 µM; in series [4], 3.4 µM; in series [5] it was 8.7 µM; in series [6] it was 0.00031 µM. In series [3], the kinetic solubility is 20.3 µM (≈ 7.38 µg/mL).
On to `CCCS(=O)(=O)c1ccc2nc(-c3ccccc3)[nH]c2c1`, for which the IC50 was > 20 µM in series [1], 2.9 µM in [4], > 20 µM in [5] and 4.66 µM in series [6]. Also, in series [3], the solubility (kinetic) is > 50 µM.
As to `CCS(=O)(=O)c1ccc2nc(-c3ccc(F)c(-c4ccccc4)c3)[nH]c2c1`, the IC50 in [1] was determined as 16 µM; in series [4] it was 3.4 µM; in series [5], 5.6 µM; in series [6], 0.00016 µM. In addition, the solubility (kinetic) in [3] was found to be 0.2 µM (≈ 0.0761 µg/mL).
Take `CCCS(=O)(=O)c1ccc2[nH]c(-c3cccc(-c4ccccc4)c3)nc2c1`: the IC50 was > 20 µM in series [1], 2.7 µM in series [4], 6 µM in [5] and 0.00043 µM in series [6]. The values for the amount remaining at 0.5 h in series [2] and in series [7] were 57.1% and 68.6%, respectively. This compound also displayed a solubility (kinetic) in [3] of 0.5 µM (≈ 0.188 µg/mL).
On to `CCS(=O)(=O)c1ccc2[nH]c(-c3cccc(-c4ccccc4)c3Cl)nc2c1`, for which the IC50 in [1] came to 18 µM; in series [4], 3 µM; in series [5], 3.8 µM; in series [6] it was 0.0405 µM. Besides, in series [3], the solubility (kinetic) came out at 1.5 µM (≈ 0.595 µg/mL).
For `CCCS(=O)(=O)c1ccc2nc(-c3cn(-c4ccccc4)ccc3=O)[nH]c2c1`, the IC50 was > 20 µM in [1]; > 20 µM in [8]; > 20 µM in [4]; > 20 µM in series [9]; > 20 µM in series [5]; 0.579 µM in series [6]. The compound further yielded a kinetic solubility in series [3] of 2 µM (≈ 0.787 µg/mL).
In series [6], `CCCS(=O)(=O)c1ccc2nc(-c3cccc(OC(F)(F)F)c3)[nH]c2c1` returned an IC50 of 0.0019 µM.
Take `O=c1ccc(-c2nc3cc(S(=O)(=O)CC(F)(F)F)ccc3[nH]2)cn1-c1ccccc1`: the IC50 is > 20 µM in series [1], > 20 µM in series [4], > 20 µM in series [5] and 0.00029 µM in series [6]. The fraction remaining at 0.5 h came out at 93.6% in series [2] and 94.7% in series [7]. In series [3], this compound returned a solubility (kinetic) of 7.7 µM (≈ 3.34 µg/mL).
For the compound `CCCS(=O)(=O)c1ccc2[nH]c(-c3ccccc3-c3ccccc3)nc2c1`, the IC50 in series [1] was 15 µM; in series [8] it was > 20 µM; in [4], > 20 µM; in [9], 4.5 µM; in [5], 11 µM; in [6], 4.06 µM. The compound further registered a solubility (kinetic) in series [3] of 23.6 µM (≈ 8.88 µg/mL).
`CCS(=O)(=O)c1ccc2nc(-c3cccc(-c4ccccc4)c3C)[nH]c2c1`: the 50% inhibitory concentration (IC50) was > 20 µM in series [1], 7.8 µM in [4], 5.2 µM in [5] and 0.0218 µM in series [6]. The solubility (kinetic) in [3] is 3.2 µM (≈ 1.2 µg/mL).
As for `CCCS(=O)(=O)c1ccc2nc(-c3cccc(C(F)(F)F)c3)[nH]c2c1`, the values for the IC50 in [1], in series [4] and in [5] were > 20 µM, 0.4 µM and 20 µM, respectively.
In the case of `CCCS(=O)(=O)c1ccc2[nH]c(-c3cccn(-c4ccccc4)c3=O)nc2c1`, the IC50 in [1], in series [8], in series [4], in [9] and in series [5] was > 20 µM each time.
`CCS(=O)(=O)c1ccc2[nH]c(-c3cc(-c4ccccc4)ccc3F)nc2c1` yielded a concentration for half-maximal inhibition (IC50) in [6] of 0.00054 µM.
